Laboratory results as given in PMC5218480 (PLoS ONE, 2017).

Test system: MV-4-11 cells
Experiment: Gene expression microarray analysis (Affymetrix PrimeView) and GSEA
Assay type: cell-based, human
Set-up: RFU PODN (11730768_x_at) / Fold change /veh PODN (11730768_x_at) / RFU LINC00158 (11744669_a_at) / Fold change /veh LINC00158 (11744669_a_at) / RFU DUSP10 (11751237_a_at) / Fold change /veh DUSP10 (11751237_a_at) / RFU ID3 (11757404_x_at) / Fold change /veh ID3 (11757404_x_at) / RFU PLEKHG5 (11737974_s_at) / Fold change /veh PLEKHG5 (11737974_s_at) / RFU LRRC4B (11730491_at) / Fold change /veh LRRC4B (11730491_at) / RFU GIMAP4 (11747438_a_at) / Fold change /veh GIMAP4 (11747438_a_at) / RFU KRT8 (11758183_x_at) / Fold change /veh KRT8 (11758183_x_at) / RFU CNN1 (11734310_a_at) / Fold change /veh CNN1 (11734310_a_at) / RFU VPS37D (11726825_at) / Fold change /veh VPS37D (11726825_at) / RFU C10orf10 (11716522_x_at) / Fold change /veh C10orf10 (11716522_x_at) / RFU KIR2DL2 /// KIR2DL4 /// KIR2DL5A /// KIR2DL5B /// KIR2DS1 /// KIR2DS2 /// KIR2DS3 /// KIR2DS4 /// KIR3DL3 /// KIR3DL3 /// KIR3DS1 (11738374_at) / Fold change /veh KIR2DL2 /// KIR2DL4 /// KIR2DL5A /// KIR2DL5B /// KIR2DS1 /// KIR2DS2 /// KIR2DS3 /// KIR2DS4 /// KIR3DL3 /// KIR3DL3 /// KIR3DS1 (11738374_at) / RFU C1QL1 (11718748_at) / Fold change /veh C1QL1 (11718748_at) / RFU TMPRSS4 (11747572_a_at) / Fold change /veh TMPRSS4 (11747572_a_at) / RFU HAMP (11756126_x_at) / Fold change /veh HAMP (11756126_x_at) / RFU RNFT2 (11725882_a_at) / Fold change /veh RNFT2 (11725882_a_at) / RFU NR4A2 (11747474_a_at) / Fold change /veh NR4A2 (11747474_a_at) / RFU ABCC12 (11746883_a_at) / Fold change /veh ABCC12 (11746883_a_at) / RFU TMEM136 (11760407_x_at) / Fold change /veh TMEM136 (11760407_x_at) / RFU CLDN22 /// WWC2 (11732394_at) / Fold change /veh CLDN22 /// WWC2 (11732394_at) / RFU HLA-DPB1 (11760878_x_at) / Fold change /veh HLA-DPB1 (11760878_x_at) / RFU SPINT1 (11716480_a_at) / Fold change /veh SPINT1 (11716480_a_at) / RFU GAP43 (11754022_s_at) / Fold change /veh GAP43 (11754022_s_at) / RFU A4GNT (11735810_at) / Fold change /veh A4GNT (11735810_at) / RFU PRB3 (11715151_x_at) / Fold change /veh PRB3 (11715151_x_at) / RFU TUBB4B (11761932_at) / Fold change /veh TUBB4B (11761932_at) / RFU CAPN14 (11732068_a_at) / Fold change /veh CAPN14 (11732068_a_at) / RFU TMCC2 (11721928_a_at) / Fold change /veh TMCC2 (11721928_a_at) / RFU IRGQ (11745062_a_at) / Fold change /veh IRGQ (11745062_a_at) / RFU FAM174B (11720279_a_at) / Fold change /veh FAM174B (11720279_a_at) / RFU TMPRSS4 (11748680_a_at) / Fold change /veh TMPRSS4 (11748680_a_at) / RFU FAM212B (11763350_a_at) / Fold change /veh FAM212B (11763350_a_at) / RFU PLEKHG5 (11743358_a_at) / Fold change /veh PLEKHG5 (11743358_a_at) / RFU ZSCAN30 (11745921_a_at) / Fold change /veh ZSCAN30 (11745921_a_at) / RFU CMKLR1 (11741424_a_at) / Fold change /veh CMKLR1 (11741424_a_at) / RFU LOC101060620 /// MAPK8IP1 (11723275_at) / Fold change /veh LOC101060620 /// MAPK8IP1 (11723275_at) / RFU SPTSSB (11747773_x_at) / Fold change /veh SPTSSB (11747773_x_at) / RFU PRSS12 (11739890_at) / Fold change /veh PRSS12 (11739890_at) / RFU BIN1 (11741810_x_at) / Fold change /veh BIN1 (11741810_x_at) / RFU WNT11 (11732464_a_at) / Fold change /veh WNT11 (11732464_a_at) / RFU C10orf10 (11716521_a_at) / Fold change /veh C10orf10 (11716521_a_at) / RFU C5orf56 (11738089_at) / Fold change /veh C5orf56 (11738089_at) / RFU CYB561 (11721691_x_at) / Fold change /veh CYB561 (11721691_x_at) / RFU ANKRD19P (11752326_a_at) / Fold change /veh ANKRD19P (11752326_a_at) / RFU OR2T12 /// OR2T33 /// OR2T8 (11738714_s_at) / Fold change /veh OR2T12 /// OR2T33 /// OR2T8 (11738714_s_at) / RFU VCAN (11748164_a_at) / Fold change /veh VCAN (11748164_a_at) / RFU JSRP1 (11732532_at) / Fold change /veh JSRP1 (11732532_at) / RFU KRTAP10-11 (11738290_x_at) / Fold change /veh KRTAP10-11 (11738290_x_at) / RFU MYO3A (11730013_a_at) / Fold change /veh MYO3A (11730013_a_at) / RFU EBF3 (11725865_a_at) / Fold change /veh EBF3 (11725865_a_at) / RFU CAMK2N1 (11719241_x_at) / Fold change /veh CAMK2N1 (11719241_x_at) / RFU C5orf56 (11738088_a_at) / Fold change /veh C5orf56 (11738088_a_at) / RFU OLFML3 (11715873_a_at) / Fold change /veh OLFML3 (11715873_a_at) / RFU LOC100653217 /// NTM (11731650_a_at) / Fold change /veh LOC100653217 /// NTM (11731650_a_at) / RFU MAPK11 (11762145_a_at) / Fold change /veh MAPK11 (11762145_a_at) / RFU FIZ1 (11724087_x_at) / Fold change /veh FIZ1 (11724087_x_at) / RFU OASL (11726364_x_at) / Fold change /veh OASL (11726364_x_at) / RFU SOX15 (11748057_x_at) / Fold change /veh SOX15 (11748057_x_at) / RFU CD79A (11719716_a_at) / Fold change /veh CD79A (11719716_a_at) / RFU HIST1H1D (11736915_at) / Fold change /veh HIST1H1D (11736915_at) / RFU CASKIN2 (11723855_a_at) / Fold change /veh CASKIN2 (11723855_a_at) / RFU LOC730098 (11760151_x_at) / Fold change /veh LOC730098 (11760151_x_at) / RFU OR4N2 (11742367_at) / Fold change /veh OR4N2 (11742367_at) / RFU PRRT2 (11749266_a_at) / Fold change /veh PRRT2 (11749266_a_at) / RFU SNX32 (11753110_a_at) / Fold change /veh SNX32 (11753110_a_at) / RFU CDHR5 (11726645_a_at) / Fold change /veh CDHR5 (11726645_a_at) / RFU RCAN1 (11760418_a_at) / Fold change /veh RCAN1 (11760418_a_at) / RFU FAM167A (11723789_a_at) / Fold change /veh FAM167A (11723789_a_at) / RFU FAM26E (11764081_at) / Fold change /veh FAM26E (11764081_at) / RFU ISYNA1 (11749810_s_at) / Fold change /veh ISYNA1 (11749810_s_at) / RFU ACY1 (11761880_at) / Fold change /veh ACY1 (11761880_at) / RFU 11764098_at / Fold change /veh 11764098_at / RFU SAMD14 (11745864_x_at) / Fold change /veh SAMD14 (11745864_x_at) / RFU NPB (11741838_a_at) / Fold change /veh NPB (11741838_a_at) / RFU TMPRSS6 (11731388_a_at) / Fold change /veh TMPRSS6 (11731388_a_at) / RFU KRTAP10-2 (11738614_at) / Fold change /veh KRTAP10-2 (11738614_at) / RFU ARHGAP8 /// PRR5-ARHGAP8 (11727945_x_at) / Fold change /veh ARHGAP8 /// PRR5-ARHGAP8 (11727945_x_at) / RFU KRTAP5-7 /// NADSYN1 (11734609_at) / Fold change /veh KRTAP5-7 /// NADSYN1 (11734609_at) / RFU RASL12 (11751679_a_at) / Fold change /veh RASL12 (11751679_a_at) / RFU CDKN2B (11736163_a_at) / Fold change /veh CDKN2B (11736163_a_at) / RFU PRF1 (11729649_at) / Fold change /veh PRF1 (11729649_at) / RFU, ZNF638 /// ZNF638-IT1 / Fold change vs veh, ZNF638 /// ZNF638-IT1 / RFU, PANK3 / Fold change vs veh, PANK3 / RFU, SH3YL1 / Fold change vs veh, SH3YL1 / RFU, ZEB2 / Fold change vs veh, ZEB2 / RFU, NRIP1 / Fold change vs veh, NRIP1 / RFU, PTTG1IP / Fold change vs veh, PTTG1IP / RFU, CAPN2 / Fold change vs veh, CAPN2 / RFU, MED14 / Fold change vs veh, MED14 / RFU, SNORA58 / Fold change vs veh, SNORA58 / RFU, C1orf63 / Fold change vs veh, C1orf63 / RFU, LRRFIP1 / Fold change vs veh, LRRFIP1 / RFU, NDUFAF7 / Fold change vs veh, NDUFAF7 / RFU, SLC12A2 / Fold change vs veh, SLC12A2 / RFU, IBTK / Fold change vs veh, IBTK / RFU, ESF1 / Fold change vs veh, ESF1 / Fold change vs veh, TMEM50B / RFU, TAOK1 / Fold change vs veh, TAOK1 / RFU, ACBD3 / Fold change vs veh, ACBD3 / RFU, TMA16 / Fold change vs veh, TMA16 / RFU, RWDD3 / Fold change vs veh, RWDD3 / RFU, BCAT1 / Fold change vs veh, BCAT1 / RFU, EDEM3 / Fold change vs veh, EDEM3 / RFU, TMEM33 / Fold change vs veh, TMEM33 / RFU, WDR75 / Fold change vs veh, WDR75 / RFU, AHCTF1 / Fold change vs veh, AHCTF1 / RFU, TFRC / Fold change vs veh, TFRC / RFU, ZDHHC17 / Fold change vs veh, ZDHHC17 / RFU, NOM1 / Fold change vs veh, NOM1 / RFU, ARL8B / Fold change vs veh, ARL8B / RFU, ZBTB11 / Fold change vs veh, ZBTB11 / RFU, TAMM41 / Fold change vs veh, TAMM41 / RFU, KIAA1704 /// LOC100996395 / Fold change vs veh, KIAA1704 /// LOC100996395 / RFU, ING1 / Fold change vs veh, ING1 / RFU, TRMT61B / Fold change vs veh, TRMT61B / RFU, FUBP3 / Fold change vs veh, FUBP3 / RFU, TP53 / Fold change vs veh, TP53 / RFU, TNKS2 / Fold change vs veh, TNKS2 / RFU, ZFP14 / Fold change vs veh, ZFP14 / RFU, ACTR2 / Fold change vs veh, ACTR2 / RFU, PPP3R1 / Fold change vs veh, PPP3R1 / RFU, PIK3R1 / Fold change vs veh, PIK3R1 / RFU, HNRNPA1 / Fold change vs veh, HNRNPA1 / RFU, RNF170 / Fold change vs veh, RNF170 / RFU, ZNF28 / Fold change vs veh, ZNF28 / RFU, RNGTT / Fold change vs veh, RNGTT / RFU, OGT / Fold change vs veh, OGT / RFU, BRD1 / Fold change vs veh, BRD1 / RFU, MARS / Fold change vs veh, MARS / RFU, ZNF655 / Fold change vs veh, ZNF655 / RFU, FAHD1 / Fold change vs veh, FAHD1 / RFU, BDP1 / Fold change vs veh, BDP1 / RFU, LRRCC1 / Fold change vs veh, LRRCC1 / RFU, ARID1A / Fold change vs veh, ARID1A / RFU, ZNF146 / Fold change vs veh, ZNF146 / RFU, ZNF330 / Fold change vs veh, ZNF330 / RFU, GPN3 / Fold change vs veh, GPN3 / RFU, C9orf123 / Fold change vs veh, C9orf123 / RFU, N4BP2L2 / Fold change vs veh, N4BP2L2 / RFU, ARFIP1 / Fold change vs veh, ARFIP1 / RFU, FAM179B / Fold change vs veh, FAM179B / RFU, BCL10 / Fold change vs veh, BCL10 / RFU, UHRF1BP1L / Fold change vs veh, UHRF1BP1L / RFU, BET1 / Fold change vs veh, BET1 / RFU, CNOT2 / Fold change vs veh, CNOT2 / RFU, ZNF268 / Fold change vs veh, ZNF268 / Fold change vs veh, ZNF507 / RFU, DGCR2 / Fold change vs veh, DGCR2 / RFU, WDSUB1 / Fold change vs veh, WDSUB1 / Fold change vs veh, HSP90B1 /// MIR3652 / RFU, ADSS / Fold change vs veh, ADSS / RFU, GK / Fold change vs veh, GK / RFU, ZNF148 / Fold change vs veh, ZNF148 / RFU, TAF9 / Fold change vs veh, TAF9 / RFU, SLC1A5 / Fold change vs veh, SLC1A5 / RFU, SLMO2 / Fold change vs veh, SLMO2 / RFU, ABCC4 / Fold change vs veh, ABCC4 / RFU, LOC101060439 /// RAP1B / Fold change vs veh, LOC101060439 /// RAP1B / RFU, RFX7 / Fold change vs veh, RFX7 / RFU, GTPBP10 / Fold change vs veh, GTPBP10 / RFU, CNEP1R1 / Fold change vs veh, CNEP1R1 / RFU, BIVM-ERCC5 /// ERCC5 / Fold change vs veh, BIVM-ERCC5 /// ERCC5 / RFU, ILF3 / Fold change vs veh, ILF3 / RFU 11762660_at / Fold change /veh 11762660_at / RFU VCAN (11757783_s_at) / Fold change /veh VCAN (11757783_s_at) / RFU DDX43 (11728927_at) / Fold change /veh DDX43 (11728927_at) / RFU KRT8 (11758188_x_at) / Fold change /veh KRT8 (11758188_x_at) / RFU NKD1 (11759106_at) / Fold change /veh NKD1 (11759106_at) / RFU SRD5A1 (11742802_a_at) / Fold change /veh SRD5A1 (11742802_a_at) / RFU TPSAB1 /// TPSB2 (11721975_s_at) / Fold change /veh TPSAB1 /// TPSB2 (11721975_s_at) / RFU GSTM3 (11746129_a_at) / Fold change /veh GSTM3 (11746129_a_at) / RFU IL23R (11737362_x_at) / Fold change /veh IL23R (11737362_x_at) / RFU TMEM51 (11727254_a_at) / Fold change /veh TMEM51 (11727254_a_at) / RFU PIWIL2 (11732686_x_at) / Fold change /veh PIWIL2 (11732686_x_at) / RFU ORM1 (11744905_x_at) / Fold change /veh ORM1 (11744905_x_at) / RFU CCDC152 (11743942_at) / Fold change /veh CCDC152 (11743942_at) / RFU ECM1 (11717891_a_at) / Fold change /veh ECM1 (11717891_a_at) / RFU IL23R (11748794_a_at) / Fold change /veh IL23R (11748794_a_at) / RFU TNFAIP8L3 (11732012_x_at) / Fold change /veh TNFAIP8L3 (11732012_x_at) / RFU MBOAT4 (11741988_at) / Fold change /veh MBOAT4 (11741988_at) / RFU 11764193_at / Fold change /veh 11764193_at / RFU TMEM53 (11763286_at) / Fold change /veh TMEM53 (11763286_at) / RFU MAGEB2 (11727129_at) / Fold change /veh MAGEB2 (11727129_at) / RFU TMEM200A (11744735_a_at) / Fold change /veh TMEM200A (11744735_a_at) / RFU CCDC152 (11751479_a_at) / Fold change /veh CCDC152 (11751479_a_at) / RFU FAM211A (11726209_a_at) / Fold change /veh FAM211A (11726209_a_at) / RFU RGS16 (11746705_a_at) / Fold change /veh RGS16 (11746705_a_at) / RFU VCAN (11755009_s_at) / Fold change /veh VCAN (11755009_s_at) / RFU RHOB (11743442_s_at) / Fold change /veh RHOB (11743442_s_at) / RFU RGS16 (11720943_a_at) / Fold change /veh RGS16 (11720943_a_at) / RFU RGS16 (11720944_at) / Fold change /veh RGS16 (11720944_at) / RFU, VPS4B / Fold change vs veh, VPS4B / RFU, CREB1 / Fold change vs veh, CREB1 / RFU, DNAJC13 / Fold change vs veh, DNAJC13 / RFU, GNAQ / Fold change vs veh, GNAQ / RFU, CDK5R1 / Fold change vs veh, CDK5R1 / RFU, ZRANB3 / Fold change vs veh, ZRANB3 / RFU, CUL4A / Fold change vs veh, CUL4A / RFU, CCNY / Fold change vs veh, CCNY / RFU, UFL1 / Fold change vs veh, UFL1 / RFU, COG3 / Fold change vs veh, COG3 / RFU, DIAPH2 / Fold change vs veh, DIAPH2 / RFU, SKA2 / Fold change vs veh, SKA2 / RFU, AFF3 / Fold change vs veh, AFF3 / RFU, LMF1 / Fold change vs veh, LMF1 / RFU, IPO11 / Fold change vs veh, IPO11 / RFU, DFFB / Fold change vs veh, DFFB / RFU, FOXP1 / Fold change vs veh, FOXP1 / RFU, CARD8 / Fold change vs veh, CARD8 / RFU, STRN3 / Fold change vs veh, STRN3 / RFU, ADK / Fold change vs veh, ADK / RFU, RASSF2 / Fold change vs veh, RASSF2 / RFU, WIPF1 / Fold change vs veh, WIPF1 / RFU, LARP1B / Fold change vs veh, LARP1B / RFU, RASA1 / Fold change vs veh, RASA1 / RFU, RB1 / Fold change vs veh, RB1 / RFU, PPFIA1 / Fold change vs veh, PPFIA1 / RFU, MAT2A / Fold change vs veh, MAT2A / RFU, CCT5 / Fold change vs veh, CCT5 / RFU, WDR92 / Fold change vs veh, WDR92 / RFU, CUX1 / Fold change vs veh, CUX1 / RFU, TTC7A / Fold change vs veh, TTC7A / RFU, TMEM135 / Fold change vs veh, TMEM135 / RFU, DEPTOR / Fold change vs veh, DEPTOR / RFU, CPM / Fold change vs veh, CPM / RFU, DNAJB6 / Fold change vs veh, DNAJB6 / RFU, CACNA2D3 / Fold change vs veh, CACNA2D3 / RFU, DTX4 / Fold change vs veh, DTX4 / RFU, TFCP2 / Fold change vs veh, TFCP2 / RFU, GMCL1 /// GMCL1P1 / Fold change vs veh, GMCL1 /// GMCL1P1 / RFU, AEBP2 / Fold change vs veh, AEBP2 / RFU, SNHG1 /// SNORD22 /// SNORD25 /// SNORD26 /// SNORD27 /// SNORD28 /// SNORD29 /// SNORD31 / Fold change vs veh, SNHG1 /// SNORD22 /// SNORD25 /// SNORD26 /// SNORD27 /// SNORD28 /// SNORD29 /// SNORD31 / Fold change (Aza/veh), C12orf56 (ProbeSet 11735607_a_at) / Fold change (ACY-1035/veh), C12orf56 (ProbeSet 11735607_a_at) / Fold change (Aza/veh), FGFR1OP (ProbeSet 11751329_s_at) / Fold change (ACY-1035/veh), FGFR1OP (ProbeSet 11751329_s_at) / Fold change (Aza/veh), VPS36 (ProbeSet 11739960_a_at) / Fold change (ACY-1035/veh), VPS36 (ProbeSet 11739960_a_at) / RFU SYPL1 (11715823_x_at) / Fold change /veh SYPL1 (11715823_x_at) / RFU IGFBP7 (11715501_s_at) / Fold change /veh IGFBP7 (11715501_s_at) / RFU REEP3 (11722064_at) / Fold change /veh REEP3 (11722064_at) / RFU IGLL1 (11728026_x_at) / Fold change /veh IGLL1 (11728026_x_at): dose or concentration left out as unconfirmed
Conditions: ProbeSet 11720154_at; LIST B

Nc1ccc(-c2cccs2)cc1NC(=O)c1ccc2c(c1)cc(C1CC1)n2CCN1CCOCC1 [ACY-1035]
Fold change vs veh, NRIP1: 0.88
